According to paper PMC7611906 (Nature chemical biology, 2021):

System: caspase 3/7 in 22Rv1 cells
Assay: Caspase-Glo 3/7 assay 22Rv1
Assay type: cell-based
Conditions: read-out: EC50 Caspase-Glo 3/7, 24h

EC50: 0.09 µM
Compound: Cc1ncsc1-c1ccc([C@H](C)NC(=O)[C@@H]2C[C@@H](O)CN2C(=O)[C@@H](NC(=O)COCCCOCCNC(=O)C[C@@H]2N=C(c3ccc(Cl)cc3)c3c(sc(C)c3C)-n3c(C)nnc32)C(C)(C)C)cc1 [ARV-771]
